From patent US20190208778A1, “INSECT REPELLENT SURFACE COMPOSITION” (ENVANCE TECHNOLOGIES, LLC, priority 2012, published 2019)

Test system: Musca domestica
Test: House fly surface repellent bioassay (treated floor tile bait stations)
Format: in vivo
Conditions: house flies
Procedure: 100 adult house flies (Musca domestica) were placed into the assay then exposed to treated bait stations, a control and test treatment. Fly response to the bait stations were recorded at predetermined time points with a video camera. Percent repellency was calculated and comparisons between treatments were made. All test house fly specimens were taken from in-house laboratory reared colonies, and were confirmed alive and in good condition prior to testing. No specimens showing any visible signs of stress, physical damage or pathogen infection were used in the study. When applicable a 1:1 male to female sex ratio was used to ensure equal susceptibility. The test arena was assembled and prepared prior to test initiation. The test arena consisted of a large 73.66 cm×73.66 cm×73.66 cm PVC frame work fitted with Thrips screening. At the top of the enclosed arena a USB powered video camera was suspended and centered over a 62.87 cm×62.87 cm section of white ceiling tile divided (marked with pencil) into equal quadrants. The bait stations were constructed as follows: A 1⁄4'' diameter hole was drilled in the center of a 10.8 cm by 10.8 cm white glazed clay tile. A 50 ml Falcon tube cap was affixed to the bottom of the tile over the hole to create a reservoir for the bait to be contained. Bait was pipetted into the reservoir then a cotton wick in inserted into the hole preventing flies from entering the reservoir and allowing bait to wick to the surface. The bait was at a 4:1:1 ratio of water, sugar, and coffee creamer. The chemical application method was as follows: Material was pipette applied to tile surface and allowed approximately 1 hour to dry. The chemical volume applied was 34 μl. Fly specimens were exposed for 24 hours. Assays were performed with a minimum of three replicates. The Tyra Tech Insect repellent surface cleaning/washing composition was comprised of 14.8% Active Ingredient (AI) blend and 85.2% other ingredients. It was confirmed that video cameras were appropriately viewing the center of the ceiling tile with a computer and computer program (such as […]). Flies were anesthetized with CO2 and then 100 flies were placed into a clean container. Insects were allowed to recover and acclimate to testing conditions for 1 hour prior to test initiation by placing and opening container with flies into assembled assay arena and allowing flies to disperse. All surfaces of bait station were cleaned with ethanol and allowed to dry. A pipette were used to treat the tile surface with the test material and treatment was spread over entire surface with pipette tip; material was allowed to dry for approximately 1 hour prior to test initiation. When dry, 5 ml of bait was pipetted into the reservoir. A cotton wick was inserted into the hole to ensuring that the top of the wick sits flush with the tile surface. A treated and a control bait station was placed into the test arena, one each centered within a randomly designated quadrant opposite of each other into a testing arena. Cameras were allowed to capture fly response over a 24 hour time period. Images were transferred to computer and data were analyzed. Photos were taken at each of the following time points: 15 minutes, 30 minutes, 1, 2, 3, 4, 5, 6, 7, 8, 12, 18 and 24 hours post introduction of treatment. At the conclusion of the test the image files were reviewed and the number of flies at each bait station was counted and recorded for both treatment and control. Average percent repellency was used as a standard measure of repellency of the treatments against insect species. Percent repellency was calculated for each treatment replicate by the following formula: Mean percent repellency for each treatment based on the data of the replicates at the given observation time points: Repellency between treatments was then compared using SAS version 9.3 to calculate the repeated measures ANOVA with time as repeated measure. Tukey's correction was used to ensure a remained at 0.05.

SMILES: CCN(CC)C(=O)c1cccc(C)c1 [DEET]
- Average mean percent repellency over 24 hours: 57.1%
- Median mean percent repellency over 24 hours: 61.3%
- statistical comparison of repellency between treatments (repeated measures ANOVA, Tukey's correction): significantly less repellent than any other treatment
- mean percent repellency (time 0.25 h post introduction): 66.7%
- mean percent repellency (time 1 h): 75.0%
- mean percent repellency (time 2 h): 0.0%
- mean percent repellency (time 3 h): 50.0%
- mean percent repellency (time 4 h): 50.0%
- mean percent repellency (time 5 h): 62.5%
- mean percent repellency (time 6 h): 22.2%
- mean percent repellency (time 7 h): 60.0%
- mean percent repellency (time 8 h): 70.6%
- mean percent repellency (time 12 h): 44.4%
- mean percent repellency (time 18 h): 83.3%
- mean percent repellency (time 24 h): 100.0%
